In PubChem BioAssay AID179 (DTP/NCI, 2004):
pEC50, pIC50: −log10 of the molar value. Where “and” joins values, the source holds several entries; their conditions need not be identical. Identical values can stand only once. Calls of active or inactive are those of the source.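 Rule for the calls: active = compounds giving half or more protection of infected cells from virus-caused growth loss, again on retest; inactive = the rest.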 Where a SMILES comes first, the peptide text is derived from it. The star is where a group is joined. Trt = c1ccc(C(c2ccccc2)(c2ccccc2)*)cc1; Cbz = O=C(OCc1ccccc1)*; Boc = CC(C)(C)OC(=O)*; OSu = O=C1CCC(=O)N1O*; Bn = c1ccc(C*)cc1; OtBu = CC(C)(C)O*; X14 = CC(C)COC*

Tested on: CEM cells HIV-1 protection, formazan growth assay
Test: NCI AIDS Antiviral Assay
Conditions: for pIC50: measured here: growth of uninfected CEM cells
Method in brief: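 Human CEM cells, uninfected and HIV-1-infected, received five drug concentrations, and growth was read by soluble formazan assay. Compounds giving at least 50% protection were retested; reproducible 100% protection defined confirmed active.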

| SMILES | pEC50 | pIC50 | outcome |
| --- | --- | --- | --- |
| CC1(C)C2CCC(C2)C1/C=C1/SC(=S)NC1=O (configuration not stated) | < 3.70 | 5.00 |  |
| COc1ccc(C(=O)C(CO)Oc2ccccc2OC)cc1OC (configuration not stated) | < 3.12 | 3.29 |  |
| Cc1ccc2c(CC(=O)O)cc(=O)oc2c1 | < 3.64 | 4.41 |  |
| CCC(C)C(NC(=O)C(N)CCC(=O)O)C(=O)NC(CCCCN)C(=O)NCC(=O)NC(C(=O)NC(C(=O)NC(CC(=O)O)C(=O)NC(CC(C)C)C(=O)NCC(=O)NC(CCCCN)C(=O)O)C(C)O)C(C)O (configuration not stated) (H-EIKGTTDLGK-OH; configuration not given here) |  |  | inactive |
| CC(C)=CC(=O)O[C@@H]1CC(C)(C)CC2C3=CCC4[C@]56CC[C@](O)(OC5)C(C)(C)C6CC[C@@]4(C)C3(C)CC[C@]21C(=O)O (some centres not stated) | < 3.70 | 4.99 |  |
| Brc1nc2c3ccccc3ncn2c1Br | < 4.52 | 4.83 |  |
| CC(C)(C)[Si](C)(C)OCC1OC(n2cnc3c(=O)[nH]c(NCc4cccc5ccccc45)nc32)C(O[Si](C)(C)C(C)(C)C)C1O[Si](C)(C)C(C)(C)C (configuration not stated) | < 3.70 | < 3.70 |  |
| CCOc1ccc(N=Nc2ccc(/C=C/c3ccc(N=Nc4ccc(OCC)cc4)cc3S(=O)(=O)O)c(S(=O)(=O)O)c2)cc1 | 4.52 | < 3.70 and 3.71 |  |
| O=[N+]([O-])c1ccc(N2N=C(c3c(O)ccc4ccccc34)CC2c2ccc(Cl)cc2)c([N+](=O)[O-])c1 (configuration not stated) | < 3.70 | 4.78 |  |
| Cc1ccc(-c2cc(-c3ccccc3)c(C#N)c(=O)n2C2OC(CO)C(O)C(O)C2O)cc1 (configuration not stated) | 4.67 | 4.65 |  |
| N#CCCN(CCCN(CCCN(C(=O)Nc1ccccc1)c1ccccc1)C(=O)Nc1ccccc1)C(=O)Nc1ccccc1 | < 3.70 | 4.06 |  |
| O=C(O)CCCCCCCCCOc1ccccc1 | < 3.70 | 4.39 |  |
| CC1(CC2=C(Br)CCCC2)C(=O)CC=C1O (configuration not stated) | < 3.70 | 3.76 |  |
| CC(=O)OC1C[N+]2(CCc3ccccc3)CCC1CC2 (configuration not stated) | < 3.15 | < 3.15 |  |
| O=C1C=CC(=O)c2c(O)c(CO)c(CO)c(O)c21 |  |  | inactive |
| O=C1C=C(Nc2ccc(Br)cc2)c2ccccc2C1=O | < 5.36 | < 5.36 |  |
| COC(=O)c1csc(-c2nc(CCNC(=O)OC(C)(C)C)sc2Br)n1 | < 4.10 | 4.50 |  |
| c1ncc(C23C4C5C6C4C2C6C53)[nH]1 (configuration not stated) | < 3.70 | 3.81 |  |
| Nc1nccc(CC(O)(c2ccccc2)c2ccccc2)n1 | < 4.19 | < 4.19 |  |
| O=C(NC1CCCCC1)/C(=C\c1ccccc1)NC(=O)c1ccccc1 | < 3.70 | < 3.70 |  |
| CSCCCSC1CCCCCCCCCCC1=O (configuration not stated) | < 3.70 | < 3.70 |  |

| SMILES | pEC50 | pIC50 | outcome |
| --- | --- | --- | --- |
| CN1C(=O)CC2(C)C1=CCc1scnc12 (configuration not stated) | < 3.70 | < 3.70 |  |
| COc1cccc2c(Nc3ccc(S(=O)(=O)NC(C)=O)cc3)c3ccc([N+](=O)[O-])cc3nc12 | < 3.85 | 4.02 |  |
| Cc1ccc2c(c1)CC1(Cc3ccccc3C1=O)C2=O (configuration not stated) | < 3.70 | 3.71 |  |
| CN1C(=O)CC(=O)N1/C(=C/c1ccccc1)c1ccccc1 | < 3.70 | 3.81 |  |
| O=c1ccc2ccccc2n1O | < 3.70 | < 3.70 |  |
| CN(C)c1ccc(/C=c2\sc3nnc(-c4ccco4)n3c2=O)cc1 | < 4.95 | < 4.95 |  |
| COC(=O)C1=C(\O)C[C@@]2(C)CC[C@@H](C(=O)OC)C2C/C=C\1C(=O)OC (some centres not stated) |  |  | inactive |
| Cc1ccc2c(c1)C(c1cccc3ccccc13)OC2=O (configuration not stated) |  |  | inactive |
| Cc1ccc(SS(=O)(=O)c2ccc(C)cc2)cc1 | < 4.42 | 5.18 |  |
| O=C1CC2(CCN(Cc3ccccc3)CC2)C(=O)N1N1CCCCC1 | < 3.70 | < 3.70 |  |
| CC(C)NC(=O)/C=C/C=C/c1ccc(Cl)cc1 | < 4.54 | < 4.54 |  |
| Cn1c(N)c(N=Nc2ccc(S(=O)(=O)Nc3ncccn3)cc2)c(=O)n(C)c1=O | < 3.70 | < 3.70 |  |
| O=C(NC(=O)c1cn(C2OC(CO)C(O)C2O)c(=O)[nH]c1=O)OCc1ccccc1 (configuration not stated) | < 3.23 | < 3.23 |  |
| Clc1ccccc1-c1nc2ccc(C34CC5CC(CC(C5)C3)C4)cc2[nH]1 | < 3.70 | 3.79 |  |
| CCC[CH2][Sn]1([CH2]CCC)[O]CC(c2ccccn2)C[O]1 | < 4.31 | 4.97 |  |
| COc1c2occc2c(N)c2ccc(=O)oc12 | < 4.02 | < 4.02 |  |
| Cc1c2ccccc2nc(CSCC(O)CO)[n+]1[O-] (configuration not stated) | < 3.70 | < 3.70 |  |
| CC(=O)OCC(OC(C)=O)C(OC(C)=O)C(OC(C)=O)C(C=NN(C(C)=O)S(=O)(=O)c1ccc(/C=C2\NC(=O)N(C)C2=O)cc1)OC(C)=O (configuration not stated) | < 3.70 | 5.14 and 4.95 |  |
| COC(=O)C1CCc2c(OC)ccc(OC)c2C1=O (configuration not stated) |  |  | inactive |
| COc1ccc(N2C(=O)C(=O)N(C)C2=O)c2ccccc12 |  |  | inactive |
| Cc1cc(NCCCCCCNc2cc(C)nc3ccc(N)cc23)c2cc(N)ccc2n1 |  | 4.97 and 4.14 |  |

| SMILES | pEC50 | pIC50 | outcome |
| --- | --- | --- | --- |
| CNC1c2ccccc2C(=O)c2cc3c(cc21)OCCOCCOCCOCCO3 (configuration not stated) | < 3.70 | 4.44 |  |
| O=C1CCCC/C1=C/c1ccc(Cl)cc1 |  |  | inactive |
| C=C1C[C@](OC)([C@H](O)C(=O)N[C@@H](OC)[C@@H]2C[C@@H](O)C(C)(C)[C@@H](C[C@@H](COC)OC)O2)O[C@H](C)[C@@H]1C |  |  | inactive |
| S=c1sc2ccccc2n1CN1CCN(Cc2ccccc2)CC1 | < 3.70 | < 3.70 |  |
| CCOC(=O)n1c(=O)nc2c3c(ncn21)Oc1c(c(-c2ccccc2)nn1-c1ccccc1)C3c1ccc(Cl)cc1 (configuration not stated) | < 3.70 | 5.64 |  |
| C[CH2][Sn]([Cl])([Cl])[CH2]C |  |  | inactive |
| CCOC(=O)/C(=C/c1ccc2ccccc2c1)P(=O)(OCC)OCC | < 4.00 | 4.62 |  |
| Cn1c2c(c3ccccc31)CCN1C(=O)CCC21 (configuration not stated) | < 3.27 | 3.54 |  |
| N#C/C=C\c1cccc(C#N)c1 | < 4.33 | < 4.33 |  |
| O=C1C=CC(=O)c2c1ccc1c3ccccc3n(CCCCCCCCn3c4ccccc4c4ccc5c(c43)C(=O)C=CC5=O)c21 | < 4.00 | 4.28 |  |
| C/C=C(/CCC1NCCC2c3ccccc3NC12)[Si](C)(C)C (configuration not stated) |  |  | inactive |
| O=C(O)c1ccc(C2SCc3nc4ccccc4n32)cc1 (configuration not stated) | < 3.70 | < 3.70 |  |
| COCOC1C(=O)N(c2ccccc2)[C@@H]1c1ccccc1 (some centres not stated) | < 4.04 | < 4.04 |  |
| Cc1ccc(S(=O)(=O)N/N=C\C2c3ccccc3-c3ccccc32)cc1 | < 3.70 | 5.66 |  |
| Nc1nc2c(ncn2C2OC(CO)CC2F)c(=O)[nH]1 (configuration not stated) |  |  | active |
| CCCc1cc(=O)oc2c3c(cc(OC(C)CI)c12)O[C@H](C)[C@@H](C)C3=O (some centres not stated) | < 4.06 | 4.67 |  |
| COc1cc(C(Cc2ccccc2)NC(C)=O)oc(=O)c1 (configuration not stated) | < 3.06 | 3.81 |  |
| COc1ccc(/C=C2\CCc3cc(OC)c(OC)cc3C2=O)cc1 |  |  | inactive |
| Clc1ccc(Cl)c(SSc2cc(Cl)ccc2Cl)c1 |  |  | inactive |
| C[n+]1c(-c2ccc(/C=C/C=N\NC(=O)c3ccc(C(=O)N/N=C\C=C\c4ccc(-c5cn6ccccc6[n+]5C)cc4)cc3)cc2)cn2ccccc21 | < 5.01 | < 5.01 |  |
| Cc1cc(NC(=O)c2ccc(N)cc2)ccc1N=Nc1ccc2c(O)c(N=Nc3ccc4cc(S(=O)(=O)O)ccc4c3)c(S(=O)(=O)O)cc2c1 | 4.60 | < 4.00 |  |

| SMILES | pEC50 | pIC50 | outcome |
| --- | --- | --- | --- |
| Cc1cc([N+](=O)[O-])c(=O)[nH]c1C | < 2.83 | 3.08 |  |
| NCCCCCC(=O)O | < 3.70 | < 3.70 |  |
| O=P1(O)Cc2ccccc2-c2ccccc21 | < 3.70 | < 3.70 |  |
| CCC1(O)C(=O)OCc2c1cc1n(c2=O)Cc2cc3cc4c(cc3nc2-1)OCO4 (configuration not stated) | < 7.00 | 8.25 |  |
| O=[N+]([O-])c1cccc(S(=O)(=O)N/N=C/c2cc(I)cc([N+](=O)[O-])c2O)c1 | < 3.44 | 4.20 |  |
| CC(C)(C)OC(=O)NC(Cc1ccc(OCc2ccccc2)cc1)C(=O)NC(CCCCNC(=O)OCc1ccccc1)C(=O)NC(CCCCNC(=O)OCc1ccccc1)C(=O)ON1C(=O)CCC1=O (configuration not stated) (Boc-Tyr(Bn)-Lys(Cbz)-Lys(Cbz)-OSu; configuration not given here) | < 4.00 | 4.33 |  |
| O=C1CC2COc3ccc(O)cc3C2=NN1c1ccccc1 (configuration not stated) | < 3.49 | 3.96 |  |
| COC(C/C(=C/CO[Si](C(C)C)(C(C)C)C(C)C)C(=O)N(COCC[Si](C)(C)C)c1ccccc1I)OC | < 3.70 | 4.49 |  |
| CC(C)COCSCC(NC(=O)CNC(=O)C(Cc1ccccc1)NC(=O)CNC(=O)C(N)CSC(c1ccccc1)(c1ccccc1)c1ccccc1)C(=O)NC(Cc1ccccc1)C(=O)NCC(=O)OC(C)(C)C (configuration not stated) (H-C(Trt)GFGC(X14)FG-OtBu; configuration not given here) | < 4.62 | < 4.62 |  |
| CC(C)(C)C(=O)Nc1ccccc1C(=O)C12CCC3(CCOCc4ccccc4)C=CCN(C(=O)O1)C32 (configuration not stated) | 4.81 | 4.37 |  |
| S=c1nc(COc2ccc(Cl)cc2)[nH][nH]1 | < 2.99 | < 2.99 |  |
| O/N=C1\CC(c2ccccc2)Oc2ccccc21 (configuration not stated) | < 3.70 | 3.90 |  |
| OC(CNc1ncccn1)c1ccccc1 (configuration not stated) | < 3.70 | < 3.70 |  |
| c1ccc(N=C2C(=Nc3ccccc3)N(C3CCCCC3)C(=NC3CCCCC3)N2c2ccccc2)cc1 | < 3.70 | < 3.70 |  |
| C[C@]12CCC(=O)C(OC(=O)c3ccc([N+](=O)[O-])cc3)=C1CCC2=O |  |  | inactive |
| OC(c1ccco1)C(F)(F)c1nc2ccccc2o1 (configuration not stated) | < 3.70 | < 3.70 |  |
| ClC1c2ccccc2-c2nsnc2C1Cl (configuration not stated) | < 4.55 | < 4.55 |  |
| NCCN1CC2CCC(CC2)C1 | < 3.70 | 3.74 |  |
| Cc1cnc(SCCN(C)C)nc1-c1ccc(-c2nc(SCCN(C)C)ncc2C)s1 | < 4.87 | 4.90 |  |
| CN(C)CCOC1(Cc2ccc(Cl)cc2Cl)CCC(C(C)(C)C)CC1 (configuration not stated) | < 3.70 | 5.67 and 5.43 |  |
| NC(=O)NNC(=O)CCn1[nH]c(=O)c(Cl)c(Cl)c1=O |  |  | inactive |
